Entries after “also recorded” stand apart in the source; their conditions may differ.
Assays:
[1] = tested on: memory disorder model rats with defect in the cholinergic neuron (ibotenic acid); test: Morris water maze test (acquisition and probe trials) in memory disorder model rats; assay type: in vivo, rat
[2] = tested on: intracerebral monoamines: norepinephrine (NE), 5-hydroxyindole acetic acid (5-HIAA); test: Monoamine content in cerebral cortex and hippocampus of memory disorder model rats (HPLC-ECD); assay type: in vivo, rat; conditions: 1 mg/kg/day oral, day 14
Method: Then, the increase and decrease in the concentrations of those intracerebral substances in rats of each group in Example 2 were measured.
That is, the brains of the memory disorder model rats prepared in Example 2 were extirpated and the contents of the monoamines in the cerebral cortex and hippocampus were measured.
On day 14 after administration, 5 rats each in 5 groups of the ibotenic acid-untreated group, non-administration control group, low dose ASL group, high dose ASL group, and positive control group in Example 2 were decapitated with a decapitation machine and the brains were taken out. The brains were put in an ice-cold physiological saline (Otsuka Pharmaceutical Co., Ltd.). Next, the brains were taken out and the cerebral cortex and hippocampus were then taken from the divided brains and the contents of the monoamines and a metabolite thereof were measured. The measurement method is shown in (a) to (c) below.
0.2 N […] solution was added to a brain sample in a container, and thereafter, an internal standard solution was added thereto, followed by homogenizing with a homogenizer. After being ice-cooled for 60 minutes or more, the resultant was centrifuged with a refrigerated centrifuge (about 4° C., 13,800 rpm, 5 minutes), and the supernatant was used as a measurement sample.
Mobile phase: a mixture containing 0.1 mol/Lacetic acid-citric acid buffer (pH 3.5), methanol, 100 mg/ml sodium 1-octane sulfonate solution, and 5 mg/ml EDTA·2·Na solution at a ratio of 830:170:1.85:1

PC-12 cell = test: Neurite extension / differentiation of PC-12 cell (differentiated cell ratio); assay type: cell-based; conditions: Example 6, non-addition 9.85
Excerpt: Regarding three fractions purified in Example 4, i.e. the fraction 1 (containing N-acylsphinganine), the fraction 2 (containing the hopanoids), and the fraction 3 (containing sphinganine and the amino lipids), the absence or presence of an action of extending and differentiating the neurite as a neurotrophic factor-like action was confirmed using PC-12 cell as a neural model cell.
Note that, in the same manner as in Example 4, 10 g of the alkali-stable lipid was loaded into a silica gel column equilibrated with chloroform. The column was washed with a solvent prepared by mixing chloroform and acetic acid at a volume ratio of 100:1, and eluted with a solvent having a ratio of chloroform to methanol of 2:1, whereby a fraction containing all of the constituent lipids of the fraction 1, fraction 2, and fraction 3 was prepared. The fraction was used as an alkali-stable lipid fraction not containing a fatty acid. Then, the presence or the absence of the action of extending and differentiating the neurite was confirmed similarly.
PC-12 cell (RCB0009) purchased from RIKEN BIORESOURCE CENTER was used. […]
After that, the resultant was cultured at 37° C. and under 5% CO2 for 48 hours. […] The total number of cells and the number of the differentiated cells in the viewing area were counted. […] Then, the average of 10 photographs in which the numbers were counted was calculated. […]

SMILES	escape latency in acquisition trials vs non-administration control group ([1]; 1 mg per 1 kg rat weight per day, oral, trials day 10 to 13)	escape latency in the seventh trial vs non-administration control group (Steel's test, p<0.05) ([1]; 1 mg/kg/day oral)	retention time in the fourth quadrant in probe trial ([1]; 1 mg/kg/day oral, day 14)	number of crossings of platform location in probe trial vs non-administration control group ([1]; 1 mg/kg/day oral, day 14, p<0.05 Steel's test)	5-HIAA content in hippocampus [2]	5-HIAA content in cerebral cortex ([2]; hydrochloride)	NE content in cerebral cortex ([2]; hydrochloride)	NE content in hippocampus ([2]; hydrochloride)	Differentiated cell ratio (%) of PC-12 cell 48 hours after addition (PC-12 cell; addition concentration 5 μg/ml) [%]	Differentiated cell ratio (%) of PC-12 cell 48 hours after addition (PC-12 cell; addition concentration 25 μg/ml) [%]
Cl.Nc1c2c(nc3ccccc13)CCCC2 [positive control, 9-amino-1,2,3,4-tetrahydroacridine hydrochloride]	tended to be short	no significant difference	did not tend to be long	significant increase	increasing tendencies	increasing tendencies; also recorded: recovered to the level close to those of the ibotenic acid-untreated group	increasing tendencies; also recorded: recovered to the level close to those of the ibotenic acid-untreated group	increasing tendencies; also recorded: recovered to the level close to that of the ibotenic acid-untreated group	–	–
CCCCCCCCCCCCCCC[C@@H](O)[C@H](CO)NC(=O)C(O)CCCCCCCCCCCCCC (stereo partly shown) [N-2′-hydroxypalmitoyl-sphinganine]	–	–	–	–	–	–	–	–	19.49	17.44
